Test results reported in patent publication US10280101B2, “Water soluble chain transfer agents” (The Lubrizol Corporation, priority 2015, dated 2019).

Experiment: Solubility/stability of CTA-acid salts in water
Assay type: physicochemical
Settings: CTA-acid dispersed in water at 1 wt. %, dissolved by adding the base/amine; solubility checked again after 48 hrs. at room temperature
Protocol: These new CTA-“bases” were made using the same procedure shown above (“Formation of CTA-Acid Salt(s)”) starting with CTA-acid. The stability of several amines was tested by dispersing CTA-acid in water at 1 wt. % CTA-acid, and then dissolution by adding the amine.

Row | SMILES | Soluble
1 | CC(C)CCCCCCCCCOCCCN | no
2 | NCCNCCO | yes

Continued, values first:

Row | Soluble | SMILES
3 | no | NCCOCCOCCN
4 | no | O=C1CCCN1CCO
5 | yes | NCCOCCO
